According to patent US11267824B2, “Inhibitors of indoleamine 2,3-dioxygenase and/or tryptophan 2,3-dioxygenase” (IDORSIA PHARMACEUTICALS LTD, priority 2017, dated 2022):

What was measured:
[1] = target: Recombinant full-length human IDO1 (Homo sapiens (Human), UniProt P14902); experiment: IDO1 enzymatic assay (IDO inhibitory activity); format: biochemical; conditions: 2 nM enzyme, 5 μM L-tryptophan, pH6.5, 30 min pre-incubation, NFK quantified by LCMS; mean values if measured multiple times; read-out: hIDO activity (IC50 in nM)
Procedure: 1) Testing Compounds for IDO Inhibitory Activity in an IDO1 Enzymatic Assay:
Recombinant full-length human IDO1 with a N-terminal hexahistidine tag expressed in E. coli and purified to homogeneity is incubated at a final concentration of 2 nM in assay buffer consisting of 37.5 mM phosphate buffer at pH6.5 supplemented with 10 mM sodium L-ascorbate, 0.45 μM methylene blue, 50 U/ml catalase, 0.01% BSA, and 0.01% Tween 20 (protocol modified from Seegers et al, JBS 2014). Example compounds are serially diluted in DMSO, further diluted in phosphate buffer, and added to the enzyme at final concentrations ranging from 10 μM to 0.5 nM. The final DMSO concentration is 0.6%. Following a pre-incubation of 30 minutes at RT, the reaction is started by the addition of L-tryptophan at a final concentration of 5 μM in assay buffer. After 30 minutes of incubation at RT, 3 μL of the reaction mixture are transferred to a 384 deep well plate containing 25 μL of deionized water. 100 μl of 200 nM L-Tryptophan-(indole-d5) in cold 100% methanol are added followed by a 10 minutes centrifugation at 4,000 rpm at 4° C. An additional 75 μL of deionized water are then added and followed by a 10 minutes centrifugation at 4,000 rpm at 4° C. The product of the reaction N′-Formylkynurenine (NFK) is quantified by LCMS and normalized to the L-Tryptophan-(indole-d5) signal. Samples with 0.6% DMSO (0% effect) and a TDO/IDO inhibitor (100% effect) are used as control samples to set the parameters for the non-linear regression necessary for the determination of the half-maximal inhibitory concentration (IC50) for each compound. For each compound concentration the percentage of activity compared to 0% and 100% effect is calculated as average ±STDEV (each concentration measured in duplicate). IC50 values and curves are generated with XLfit software (IDBS) using Dose-Response One Site model 203 (four parameter logistic curve model). When compounds are measured multiple times, mean values are given.

[2] = target: Recombinant human TDO comprising amino acids 19-407 (Homo sapiens (Human), UniProt P48775); experiment: TDO2 enzymatic assay (TDO inhibitory activity); format: biochemical; conditions: 15 nM enzyme, 200 μM L-tryptophan, pH7, 30 min pre-incubation, NFK quantified by LCMS; mean values if measured multiple times; read-out: hTDO activity (IC50 in nM)
Procedure: 2) Testing Compounds for TDO Inhibitory Activity in a TDO2 Enzymatic Assay:
Recombinant human TDO comprising amino acids 19-407 with a N-terminal hexahistidine tag expressed in E. coli and purified to homogeneity is incubated at a final concentration of 15 nM in assay buffer consisting of 75 mM phosphate buffer at pH7 supplemented with 100 μM ascorbic acid, 50 U/ml Catalase, 0.01% BSA, and 0.01% Tween 20 (protocol modified from Seegers et al, JBS 2014). Example compounds are serially diluted in DMSO, further diluted in phosphate buffer, and added to the reaction mixture at final concentrations ranging from 10 μM to 0.5 nM. The final DMSO concentration is 0.6%. Following a pre-incubation of 30 minutes at RT, the reaction is started by the addition of L-tryptophan at a final concentration of 200 μM in assay buffer. After 30 minutes of incubation at RT, 3 μL of the reaction mixture are transferred to a 384 deep well plate containing 25 μL of deionized water. 100 μl of 200 nM L-Tryptophan-(indole-d5) in cold 100% methanol are added followed by a 10 minutes centrifugation at 4,000 rpm at 4° C. An additional 75 μL of deionized water are then added and followed by a 10 minutes centrifugation at 4,000 rpm at 4° C. The product of the reaction N′-Formylkynurenine (NFK) is quantified by LCMS and normalized to the L-Tryptophan-(indole-d5) signal. Samples with 0.6% DMSO (0% effect) and a TDO/IDO inhibitor (100% effect) are used as control samples to set the parameters for the non-linear regression necessary for the determination of the half-maximal inhibitory concentration (IC50) for each compound. For each compound concentration the percentage of activity compared to 0% and 100% effect is calculated as average±STDEV (each concentration measured in duplicate). IC50 values and curves are generated with XLfit software (IDBS) using Dose-Response One Site model 203 (four parameter logistic curve model). When compounds are measured multiple times, mean values are given.

Chain of Recombinant full-length human IDO1 (P14902 whole entry): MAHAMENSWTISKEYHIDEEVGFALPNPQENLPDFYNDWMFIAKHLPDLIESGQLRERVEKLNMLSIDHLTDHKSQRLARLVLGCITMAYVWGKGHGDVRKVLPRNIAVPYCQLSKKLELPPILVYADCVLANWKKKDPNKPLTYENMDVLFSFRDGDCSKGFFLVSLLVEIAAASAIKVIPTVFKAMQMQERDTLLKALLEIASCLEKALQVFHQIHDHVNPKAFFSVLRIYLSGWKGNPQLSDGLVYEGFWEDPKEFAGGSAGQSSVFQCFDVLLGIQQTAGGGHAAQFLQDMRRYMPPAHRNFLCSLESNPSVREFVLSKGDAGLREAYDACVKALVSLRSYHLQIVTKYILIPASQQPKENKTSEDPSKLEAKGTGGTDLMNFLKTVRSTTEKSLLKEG
Chain of Recombinant human TDO comprising amino acids 19-407 (P48775 19-406 limits assumed): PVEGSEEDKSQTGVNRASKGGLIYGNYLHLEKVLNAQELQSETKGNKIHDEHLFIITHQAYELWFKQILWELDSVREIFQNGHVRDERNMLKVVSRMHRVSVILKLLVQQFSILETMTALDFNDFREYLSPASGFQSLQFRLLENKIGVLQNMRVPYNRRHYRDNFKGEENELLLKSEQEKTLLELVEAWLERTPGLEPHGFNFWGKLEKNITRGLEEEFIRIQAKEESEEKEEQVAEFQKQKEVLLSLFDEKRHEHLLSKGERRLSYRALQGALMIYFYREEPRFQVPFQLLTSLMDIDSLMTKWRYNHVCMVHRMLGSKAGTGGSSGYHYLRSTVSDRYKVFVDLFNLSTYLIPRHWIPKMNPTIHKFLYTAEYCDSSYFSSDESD

Compound | IC50 [1] | IC50 [2]
CC(C)C1CCC(CC(O)c2c(C3CC3)sc3cncn23)CC1 (racemic) [Example 85, rac-1-(2-Cyclopropyl-imidazo[5,1-b]thiazol-3-yl)-2-(4-isopropyl-cyclohexyl)-ethanol] | 511 nM | 2830 nM
CC(C)(C)C1CCC(C(O)c2c(C3CC3)sc3cncn23)CC1 (racemic) [Example 86, rac-(4-tert-Butyl-cyclohexyl)-(2-cyclopropyl-imidazo[5,1-b]thiazol-3-yl)-methanol] | 511 nM | 2780 nM
OC(CC1CCC(C2CCC2)CC1)c1c(C2CC2)sc2cncn12 (racemic) [Example 87, rac-2-(4-Cyclobutyl-cyclohexyl)-1-(2-cyclopropyl-imidazo[5,1-b]thiazol-3-yl)-ethanol] | 820 nM | 3100 nM
OC(c1c(-c2ccccc2)sc2cncn12)C1CCCCC1 (racemic) [Example 92, rac-Cyclohexyl-(2-phenyl-imidazo[5,1-b]thiazol-3-yl)-methanol] | 382 nM | 246 nM
OC(CC1CCCCC1)c1c(-c2ccccc2)sc2cncn12 (racemic) [Example 93, rac-2-Cyclohexyl-1-(2-phenyl-imidazo[5,1-b]thiazol-3-yl)-ethanol] | 296 nM | 496 nM
OC(c1c(-c2ccsc2)sc2cncn12)C1CCCCC1 (racemic) [Example 94, rac-Cyclohexyl-(2-thiophen-3-yl-imidazo[5,1-b]thiazol-3-yl)-methanol] | 144 nM | 181 nM
OC(CC1CCCCC1)c1c(-c2ccsc2)sc2cncn12 (racemic) [Example 95, rac-2-Cyclohexyl-1-(2-thiophen-3-yl-imidazo[5,1-b]thiazol-3-yl)-ethanol] | 313 nM | 386 nM
CCc1sc2cncn2c1C(O)C1CCCCC1 (racemic) [Example 96, rac-Cyclohexyl-(2-ethyl-imidazo[5,1-b]thiazol-3-yl)-methanol] | 10.5 nM | 39.9 nM
CC(C)Cc1sc2cncn2c1C(O)C1CCCCC1 (racemic) [Example 98, rac-Cyclohexyl-(2-isobutyl-imidazo[5,1-b]thiazol-3-yl)-methanol] | 435 nM | 583 nM
CC(C)Cc1sc2cncn2c1C(O)CC1CCCCC1 (racemic) [Example 99, rac-2-Cyclohexyl-1-(2-isobutyl-imidazo[5,1-b]thiazol-3-yl)-ethanol] | 837 nM | 1070 nM
CCc1sc2cncn2c1C(O)CC1CCCCC1 (racemic) [Example 100, rac-2-Cyclohexyl-1-(2-ethyl-imidazo[5,1-b]thiazol-3-yl)-ethanol] | 6.63 nM | 299 nM
OC(c1c(C2CC2)sc2cncn12)C1CCC(C2CCC2)CC1 (racemic) [Example 103, rac-(4-Cyclobutyl-cyclohexyl)-(2-cyclopropyl-imidazo[5,1-b]thiazol-3-yl)-methanol] | 70.1 nM | 1780 nM
CC1(C(O)c2c(C3CC3)sc3cncn23)CCCCC1 (racemic) [Example 105, rac-(2-Cyclopropyl-imidazo[5,1-b]thiazol-3-yl)-(1-methyl-cyclohexyl)-methanol] | 10.6 nM | 104 nM
Cc1sc2cncn2c1C(O)C1CC(C)(C)C1 (racemic) [Example 109, rac-(3,3-Dimethyl-cyclobutyl)-(2-methyl-imidazo[5,1-b]thiazol-3-yl)-methanol] | 13.6 nM | 190 nM
CC1(C)CC(C(O)c2c(C(F)(F)F)sc3cncn23)C1 (racemic) [Example 110, rac-(3,3-Dimethyl-cyclobutyl)-(2-trifluoromethyl-imidazo[5,1-b]thiazol-3-yl)-methanol] | 9.81 nM | 912 nM
OC(CC1CCCC1)c1c(C(F)(F)F)sc2cncn12 (racemic) [Example 111, rac-2-Cyclopentyl-1-(2-trifluoromethyl-imidazo[5,1-b]thiazol-3-yl)-ethanol] | 101 nM | 2430 nM
Cc1sc2cncn2c1C(O)C1CCCC1 (racemic) [Example 113, rac-Cyclopentyl-(2-methyl-imidazo[5,1-b]thiazol-3-yl)-methanol] | 149 nM | 206 nM
CC1CCC(C(O)c2c(C(F)(F)F)sc3cncn23)CC1 (racemic) [Example 115, rac-(4-Methyl-cyclohexyl)-(2-trifluoromethyl-imidazo[5,1-b]thiazol-3-yl)-methanol] | 84.1 nM | 1960 nM
CC1(C)CCC(CC(O)c2c(C(F)(F)F)sc3cncn23)CC1 (racemic) [Example 118, rac-2-(4,4-Dimethyl-cyclohexyl)-1-(2-trifluoromethyl-imidazo[5,1-b]thiazol-3-yl)-ethanol] | 447 nM | 7280 nM
OC(c1c(-c2cccnc2)sc2cncn12)C1CCCCC1 (racemic) [Example 124, rac-Cyclohexyl-(2-pyridin-3-yl-imidazo[5,1-b]thiazol-3-yl)-methanol] | 342 nM | 881 nM
Cn1cc(-c2sc3cncn3c2C(O)C2CCCCC2)cn1 (racemic) [Example 125, rac-Cyclohexyl-[2-(1-methyl-1H-pyrazol-4-yl)-imidazo[5,1-b]thiazol-3-yl]-methanol] | 209 nM | > 10200 nM
Cc1ccc(-c2sc3cncn3c2C(O)C2CCCCC2)cc1 (racemic) [Example 126, rac-Cyclohexyl-(2-p-tolyl-imidazo[5,1-b]thiazol-3-yl)-methanol] | 3100 nM | 1010 nM
COc1ccc(-c2sc3cncn3c2C(O)C2CCCCC2)cc1 (racemic) [Example 127, rac-Cyclohexyl-[2-(4-methoxy-phenyl)-imidazo[5,1-b]thiazol-3-yl]-methanol] | 3090 nM | 1990 nM
CCCc1sc2cncn2c1C(O)CC1CCCCC1 (racemic) [Example 129, rac-2-Cyclohexyl-1-(2-propyl-imidazo[5,1-b]thiazol-3-yl)-ethanol] | 36.8 nM | 595 nM
CCCc1sc2cncn2c1C(O)C1CCCCC1 (racemic) [Example 130, rac-Cyclohexyl-(2-propyl-imidazo[5,1-b]thiazol-3-yl)-methanol] | 49.5 nM | 153 nM
COC1CCC(CC(O)c2c(C3CC3)sc3cncn23)CC1 (racemic) [Example 131, rac-1-(2-Cyclopropyl-imidazo[5,1-b]thiazol-3-yl)-2-(4-methoxy-cyclohexyl)-ethanol] | 11.3 nM | 1330 nM
OC(c1c(C(F)(F)F)sc2cncn12)C1CCCC1 (racemic) [Example 132, rac-Cyclopentyl-(2-trifluoromethyl-imidazo[5,1-b]thiazol-3-yl)-methanol] | 44.3 nM | 591 nM
OC(CC1CCC(C2CCCC2)CC1)c1c(C2CC2)sc2cncn12 (racemic) [Example 134, rac-2-(4-Cyclopentyl-cyclohexyl)-1-(2-cyclopropyl-imidazo[5,1-b]thiazol-3-yl)-ethanol] | 757 nM | 2800 nM
